Assay results reported in PubChem BioAssay AID248 (DTP/NCI, 2004).
Where “and” joins values, the source holds several entries; their conditions need not be identical. Identical values can stand only once. Inconclusive results and toxic doses are left out.

Test system: L1210 leukemia ip in BDF1 mice, survival T/C
Assay: NCI In Vivo Anticancer Drug Screen. Data for tumor model L1210 Leukemia (intraperitoneal) in B6D2F1 (BDF1) mice
Settings: endpoint: mean survival time, higher = longer survival
Procedure, shortened: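 Tumor cells were implanted, animals were treated, and survival was followed. The result divides the treated measurement by the vehicle-control measurement.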

[1] = dose: 100.0 mg/kg/injection, schedule: Q04DX003 (ip), vehicle: saline with Tween-80
[2] = dose: 200.0 mg/kg/injection, schedule: Q04DX003 (ip), vehicle: saline with Tween-80
[3] = dose: 400.0 mg/kg/injection, schedule: Q04DX003 (ip), vehicle: saline with Tween-80

With `CN(C)c1ccc2c(c1)N=Nc1cc(N(C)C)ccc1C2` the T/C (dose: 100.0 mg/kg/injection, schedule: Q01DX001 (ip), vehicle: Klucel (hydroxypropylcellulose) (HPC)) was 87 % of control, the T/C (dose: 200.0 mg/kg/injection, schedule: Q01DX001 (ip), vehicle: Klucel (hydroxypropylcellulose) (HPC)) was 91 % of control and the T/C (dose: 400.0 mg/kg/injection, schedule: Q01DX001 (ip), vehicle: Klucel (hydroxypropylcellulose) (HPC)) was 87 % of control.

With `COc1ccc(C)cc1NC(=O)c1c(Br)c(Br)c(Br)c(Br)c1C(=O)O` the T/C (dose: 100.0 mg/kg/injection, schedule: Q01DX009 (ip), vehicle: Klucel (hydroxypropylcellulose) (HPC)) was 98 % of control and the T/C (dose: 200.0 mg/kg/injection, schedule: Q01DX009 (ip), vehicle: Klucel (hydroxypropylcellulose) (HPC)) was 92 % of control.

In the case of `[Co+2].[NH-]C(CC(N)=O)C(=O)O.[NH-]C(CC(N)=O)C(=O)O` (configuration not stated), the T/C (dose: 100.0 mg/kg/injection, schedule: Q04DX002 (ip), vehicle: saline) is reported as 108 % of control and the T/C (dose: 200.0 mg/kg/injection, schedule: Q04DX002 (ip), vehicle: saline) is reported as 86 % of control.

With `CNCCc1cc2c(c(OC)c1/C=C/C(=O)/C=C/c1c(CCNC)cc3c(c1OC)OCO3)OCO2` the T/C (dose: 75.0 mg/kg/injection, schedule: Q01DX001 (ip), vehicle: carboxymethylcellulose (CMC)) was 100 % of control and the T/C (dose: 150.0 mg/kg/injection, schedule: Q01DX001 (ip), vehicle: carboxymethylcellulose (CMC)) was 100 % of control.

For `Nc1nc(=O)c2ccccc2s1`, the T/C (dose: 100.0 mg/kg/injection, schedule: Q01DX001 (ip), vehicle: saline) was 97 % of control, the T/C [1] was 101 % of control and the T/C (dose: 200.0 mg/kg/injection, schedule: Q01DX001 (ip), vehicle: saline) was 98 % of control. For the same compound, the T/C [2] was 108 % of control, the T/C (dose: 400.0 mg/kg/injection, schedule: Q01DX001 (ip), vehicle: saline) was 97 % of control and the T/C [3] was 106 % of control.

With `CSCCSc1ncnc2nc[nH]c12` the T/C [1] was 107 % of control, the T/C [2] was 102 % of control and the T/C [3] was 101 % of control.

With `CC(=O)c1ccc(SC(=O)N(C)C)cc1` the T/C [1] was 98 % of control, the T/C [2] was 93 % of control and the T/C [3] was 97 % of control.

With `CC1(C)C=C(C(N)=O)C(C)(C)N1O` the T/C (dose: 50.0 mg/kg/injection, schedule: Q01DX009 (ip), vehicle: other) was 98 % of control, the T/C (dose: 100.0 mg/kg/injection, schedule: Q01DX009 (ip), vehicle: other) was 101 % of control and the T/C (dose: 200.0 mg/kg/injection, schedule: Q01DX009 (ip), vehicle: other) was 95 % of control.

`O=C(O)CCCCCn1nnc2c(=O)[nH]cnc21` was tested, and the T/C (dose: 100.0 mg/kg/injection, schedule: Q04DX003 (ip), vehicle: saline) was 106 % of control, the T/C (dose: 200.0 mg/kg/injection, schedule: Q04DX003 (ip), vehicle: saline) was 106 % of control and the T/C (dose: 400.0 mg/kg/injection, schedule: Q04DX003 (ip), vehicle: saline) was 101 % of control.

`Cc1c(C(N)=O)sc2ccccc12` was tested, and the T/C (dose: 100.0 mg/kg/injection, schedule: Q01DX001 (ip), vehicle: carboxymethylcellulose (CMC)) was 89 % of control, the T/C (dose: 200.0 mg/kg/injection, schedule: Q01DX001 (ip), vehicle: carboxymethylcellulose (CMC)) was 107 % of control and the T/C (dose: 400.0 mg/kg/injection, schedule: Q01DX001 (ip), vehicle: carboxymethylcellulose (CMC)) was 94 % of control.

With `N=C(N)c1ccc(C(=N)N)cc1` the T/C (dose: 25.0 mg/kg/injection, schedule: Q01DX009 (ip), vehicle: water) was 95 % of control, the T/C (dose: 50.0 mg/kg/injection, schedule: Q01DX009 (ip), vehicle: water) was 95 % of control and 99 % of control and the T/C (dose: 100.0 mg/kg/injection, schedule: Q01DX009 (ip), vehicle: water) was 97 % of control and 103 % of control.

For `CCCCCCC(C)Cl` (configuration not stated), the T/C (dose: 100.0 mg/kg/injection, schedule: Q01DX009 (ip), vehicle: saline with Tween-80) was 105 % of control, the T/C (dose: 200.0 mg/kg/injection, schedule: Q01DX009 (ip), vehicle: saline with Tween-80) was 108 % of control and the T/C (dose: 400.0 mg/kg/injection, schedule: Q01DX009 (ip), vehicle: saline with Tween-80) was 106 % of control.

In the case of `On1nnc2ccc(Cl)cc21`, the T/C [1] is reported as 95 % of control, the T/C [2] is reported as 95 % of control and the T/C [3] is reported as 102 % of control.

In the case of `COc1ccc(/C=C/c2nccc3ccccc23)cc1OC`, the T/C (dose: 50.0 mg/kg/injection, schedule: Q04DX002 (ip), vehicle: Klucel (hydroxypropylcellulose) (HPC)) is reported as 105 % of control, the T/C (dose: 100.0 mg/kg/injection, schedule: Q04DX002 (ip), vehicle: Klucel (hydroxypropylcellulose) (HPC)) is reported as 102 % of control and the T/C (dose: 200.0 mg/kg/injection, schedule: Q04DX002 (ip), vehicle: Klucel (hydroxypropylcellulose) (HPC)) is reported as 96 % of control and 108 % of control. The T/C (dose: 400.0 mg/kg/injection, schedule: Q04DX002 (ip), vehicle: Klucel (hydroxypropylcellulose) (HPC)) was 89 % of control.

With `O=C(NCCCl)NC(Cc1ccccc1)C(=O)O` (configuration not stated) the T/C (dose: 100.0 mg/kg/injection, schedule: Q01DX001 (ip), vehicle: saline with Tween-80) was 94 % of control, the T/C (dose: 200.0 mg/kg/injection, schedule: Q01DX001 (ip), vehicle: saline with Tween-80) was 94 % of control and the T/C (dose: 400.0 mg/kg/injection, schedule: Q01DX001 (ip), vehicle: saline with Tween-80) was 91 % of control.

For `O=C(CCl)NC1=C(Cl)C(=O)c2ccccc2C1=O`, the T/C (dose: 75.0 mg/kg/injection, schedule: Q01DX001 (ip), vehicle: saline) was 93 % of control.
